Test results taken from US5977063A, “Alkylated hexapeptides” (Eli Lilly and Company, priority 1998, dated 1999).

Tests used:
Assay type in all cases: cell-based
[1] = system: Enterococcus faecium and faecalis (SENSITIVE); experiment: MIC, standard broth micro-dilution assay, SENSITIVE enterococci; design: unit not given here; details: geometric mean of 4-6 isolates
Procedure: (§1) The antibacterial efficacy of the present compounds is illustrated by Table II. The minimal inhibitory concentrations (MICs) were determined using a standard broth micro-dilution assay.

[2] = system: Staphylococcus epidermidis 270; experiment: MIC, standard broth micro-dilution assay, SE 270; design: unit not given here
Procedure: as §1

[3] = system: Staphylococcus aureus 446; experiment: MIC, standard broth micro-dilution assay, SA 446; design: unit not given here
Procedure: as §1

[4] = system: Staphylococcus haemolyticus 105; experiment: MIC, standard broth micro-dilution assay, SH 105; design: unit not given here
Procedure: as §1

[5] = system: Streptococcus pyogenes C203; experiment: MIC, standard broth micro-dilution assay, SPY C203; design: unit not given here
Procedure: as §1

[6] = system: Enterococcus faecium and faecalis (RESISTANT); details: geometric mean of 4-6 isolates
Procedure: as §1

[7] = system: Staphylococcus aureus 489; experiment: MIC, standard broth micro-dilution assay, SA 489; design: unit not given here
Procedure: as §1

[8] = system: Streptococcus pneumoniae P1; experiment: MIC, standard broth micro-dilution assay, SPN P1; design: unit not given here
Procedure: as §1

[9] = system: Staphylococcus haemolyticus 415; experiment: MIC, standard broth micro-dilution assay, SH 415; design: unit not given here
Procedure: as §1

[10] = system: Staphylococcus aureus 447; experiment: MIC, standard broth micro-dilution assay, SA 447; design: unit not given here
Procedure: as §1

| Compound | Minimal Inhibitory Concentration (MIC) SENSITIVE [1] | Minimal Inhibitory Concentration (MIC) SE 270 [2] | Minimal Inhibitory Concentration (MIC) SA 446 [3] | Minimal Inhibitory Concentration (MIC) SH 105 [4] | Minimal Inhibitory Concentration (MIC) SPY C203 [5] | Minimal Inhibitory Concentration (MIC) RESISTANT [6] | Minimal Inhibitory Concentration (MIC) SA 489 [7] | Minimal Inhibitory Concentration (MIC) SPN P1 [8] | Minimal Inhibitory Concentration (MIC) SH 415 [9] | Minimal Inhibitory Concentration (MIC) SA 447 [10] |
| --- | --- | --- | --- | --- | --- | --- | --- | --- | --- | --- |
| C[C@@H]1O[C@@H](O[C@@H]2c3ccc(c(Cl)c3)Oc3cc4cc(c3O[C@@H]3O[C@H](CO)[C@@H](O)[C@H](O)[C@H]3O[C@H]3C[C@](C)(NCc5ccc(-c6ccccc6)cc5)[C@@H](O)[C@H](C)O3)Oc3ccc(cc3Cl)[C@@H](O)[C@@H](NCc3ccccc3)C(=O)N[C@@H](CC(N)=O)C(=O)N[C@H]4C(=O)N[C@H]3C(=O)N[C@@H]2C(=O)N[C@H](C(=O)O)c2cc(O)cc(O)c2-c2cc3ccc2O)C[C@](C)(N)[C@H]1O [Example 5, N^1 -BENZYL-N^DISACC -(p-PHENYLBENZYL)-DESLEUCYL-A82846B] | 9.2 | 2 | 2 | 2 | 0.125 | 23 | 2 | 0.5 | 2 | 2 |
| C[C@@H]1O[C@@H](O[C@H]2[C@H](Oc3c4cc5cc3Oc3ccc(cc3Cl)[C@@H](O[C@H]3C[C@](C)(NCc6ccccc6)[C@@H](O)[C@H](C)O3)[C@@H]3NC(=O)[C@H](NC(=O)[C@@H]5NC(=O)[C@H](CC(N)=O)NC(=O)[C@H](NCc5ccccc5)[C@H](O)c5ccc(c(Cl)c5)O4)c4ccc(O)c(c4)-c4c(O)cc(O)cc4[C@@H](C(=O)O)NC3=O)O[C@H](CO)[C@@H](O)[C@@H]2O)C[C@](C)(NCc2ccc(-c3ccccc3)cc2)[C@H]1O [Example 6, N^1,N^MONOSACC -DIBENZYL-N^DISACC -(p-PHENYLBENZYL)-DESLEUCYL-A82846B] | 6.1 | 0.5 | 2 | 0.5 | 0.125 | 16 | 2 | 0.5 | 1 | 2 |
| CCCCCCN[C@H]1C(=O)N[C@@H](CC(N)=O)C(=O)N[C@H]2C(=O)N[C@H]3C(=O)N[C@H](C(=O)N[C@H](C(=O)O)c4cc(O)cc(O)c4-c4cc3ccc4O)[C@H](O[C@H]3C[C@](C)(N)[C@@H](O)[C@H](C)O3)c3ccc(c(Cl)c3)Oc3cc2cc(c3O[C@@H]2O[C@H](CO)[C@@H](O)[C@H](O)[C@H]2O[C@H]2C[C@](C)(NCCCCCC)[C@@H](O)[C@H](C)O2)Oc2ccc(cc2Cl)[C@H]1O [Example 7, N^1,N^DISACC -DIHEXYLDESLEUCYL-A82846B] | 111 | 16 | 16 | 4 | 8 | > 128 | 8 | 8 | 8 | 8 |
| CCCCCCN[C@H]1C(=O)N[C@@H](CC(N)=O)C(=O)N[C@H]2C(=O)N[C@H]3C(=O)N[C@H](C(=O)N[C@H](C(=O)O)c4cc(O)cc(O)c4-c4cc3ccc4O)[C@H](O[C@H]3C[C@](C)(NCCCCCC)[C@@H](O)[C@H](C)O3)c3ccc(c(Cl)c3)Oc3cc2cc(c3O[C@@H]2O[C@H](CO)[C@@H](O)[C@H](O)[C@H]2O[C@H]2C[C@](C)(NCCCCCC)[C@@H](O)[C@H](C)O2)Oc2ccc(cc2Cl)[C@H]1O [Example 8, N^1,N^DISACC,N^MONOSACC -TRI-n-HEXYLDESLEUCYL-A82846B] | 55 | 8 | 16 | 4 | 1 | 76 | 8 | 2 | 16 | 8 |
| C[C@@H]1O[C@@H](O[C@@H]2c3ccc(c(Cl)c3)Oc3cc4cc(c3O[C@@H]3O[C@H](CO)[C@@H](O)[C@H](O)[C@H]3O[C@H]3C[C@](C)(NCc5ccc(O)cc5)[C@@H](O)[C@H](C)O3)Oc3ccc(cc3Cl)[C@@H](O)[C@@H](NCc3ccc(O)cc3)C(=O)N[C@@H](CC(N)=O)C(=O)N[C@H]4C(=O)N[C@H]3C(=O)N[C@@H]2C(=O)N[C@H](C(=O)O)c2cc(O)cc(O)c2-c2cc3ccc2O)C[C@](C)(N)[C@H]1O [Example 9, N^1,N^DISACC -BIS(p-HYDROXYBENZYL)-DESLEUCYL-A82846B] | > 128 | 32 | 16 | 32 | 16 | > 128 | 16 | 32 | 32 | 16 |
| CCCCCCN[C@H]1C(=O)N[C@@H](CC(N)=O)C(=O)N[C@H]2C(=O)N[C@H]3C(=O)N[C@H](C(=O)N[C@H](C(=O)O)c4cc(O)cc(O)c4-c4cc3ccc4O)[C@H](O[C@H]3C[C@](C)(N)[C@@H](O)[C@H](C)O3)c3ccc(c(Cl)c3)Oc3cc2cc(c3O[C@@H]2O[C@H](CO)[C@@H](O)[C@H](O)[C@H]2O[C@H]2C[C@](C)(N)[C@@H](O)[C@H](C)O2)Oc2ccc(cc2Cl)[C@H]1O [Example 10, N^1 -n-HEXYLDESLEUCYL-A82846B] | > 128 | 32 | 32 | 64 | 16 | > 128 | 16 | 32 | 64 | 32 |
| CCCCCCN[C@H]1C(=O)N[C@@H](CC(N)=O)C(=O)N[C@H]2C(=O)N[C@H]3C(=O)N[C@H](C(=O)N[C@H](C(=O)O)c4cc(O)cc(O)c4-c4cc3ccc4O)[C@H](O[C@H]3C[C@](C)(N)[C@@H](O)[C@H](C)O3)c3ccc(c(Cl)c3)Oc3cc2cc(c3O[C@@H]2O[C@H](CO)[C@@H](O)[C@H](O)[C@H]2O[C@H]2C[C@](C)(NCc3ccc(-c4ccccc4)cc3)[C@@H](O)[C@H](C)O2)Oc2ccc(cc2Cl)[C@H]1O [Example 11, N^1 -n-HEXYL-N^DISACC -(p-PHENYLBENZYL)-DESLEUCYL-A82846B] | 11 | 0.5 | 1 | 2 | 0.125 | 27 | 1 | 0.125 | 1 | 0.5 |
| C[C@@H]1O[C@@H](O[C@H]2[C@H](Oc3c4cc5cc3Oc3ccc(cc3Cl)[C@@H](O[C@H]3C[C@](C)(N)[C@@H](O)[C@H](C)O3)[C@@H]3NC(=O)[C@H](NC(=O)[C@@H]5NC(=O)[C@H](CC(N)=O)NC(=O)[C@H](NCc5ccccc5)[C@H](O)c5ccc(c(Cl)c5)O4)c4ccc(O)c(c4)-c4c(O)cc(O)cc4[C@@H](C(=O)O)NC3=O)O[C@H](CO)[C@@H](O)[C@@H]2O)C[C@](C)(N)[C@H]1O [Example 12, N^1 -BENZYLDESLEUCYL-A82846B] | 128 | > 64 | > 64 | > 64 | 2 | > 128 | 64 | 2 | > 64 | > 64 |
| C[C@@H]1O[C@@H](O[C@H]2[C@H](Oc3c4cc5cc3Oc3ccc(cc3Cl)[C@@H](O[C@H]3C[C@](C)(N)[C@@H](O)[C@H](C)O3)[C@@H]3NC(=O)[C@H](NC(=O)[C@@H]5NC(=O)[C@H](CC(N)=O)NC(=O)[C@H](NCc5ccc(O)cc5)[C@H](O)c5ccc(c(Cl)c5)O4)c4ccc(O)c(c4)-c4c(O)cc(O)cc4[C@@H](C(=O)O)NC3=O)O[C@H](CO)[C@@H](O)[C@@H]2O)C[C@](C)(N)[C@H]1O [Example 13, N^1 -(p-HYDROXYBENZYL)-DESLEUCYL-A82846B] | 4 | 32 | 16 | > 64 | 0.25 | 54 | 8 | ≤ .06 | > 64 | 32 |
